Laboratory results as given in patent US7820669B2 (NYCOMED GmbH, priority 2004, dated 2010).

Tests used:
[1] = biological target: T1, PDE4B2 (Homo sapiens, UniProt Q07343); experiment: Inhibition of PDE4B2 activity, modified [3H]cAMP SPA (scintillation proximity assay) test; assay type: biochemical; details: recombinant PDE4B2 expressed in SF21 insect cells; 0.5 μM cAMP; 15 min at 37° C.; read-out: PDE4 Inhibition [measured as -logIC50 (mol/l)] (converted)
T1 construct: made in house; host or cells: SF21 insect cells (baculovirus generated in SF9 cells, pCR-Bac vector)
T1 sequence (Q07343 1-564 isoform Q07343-2): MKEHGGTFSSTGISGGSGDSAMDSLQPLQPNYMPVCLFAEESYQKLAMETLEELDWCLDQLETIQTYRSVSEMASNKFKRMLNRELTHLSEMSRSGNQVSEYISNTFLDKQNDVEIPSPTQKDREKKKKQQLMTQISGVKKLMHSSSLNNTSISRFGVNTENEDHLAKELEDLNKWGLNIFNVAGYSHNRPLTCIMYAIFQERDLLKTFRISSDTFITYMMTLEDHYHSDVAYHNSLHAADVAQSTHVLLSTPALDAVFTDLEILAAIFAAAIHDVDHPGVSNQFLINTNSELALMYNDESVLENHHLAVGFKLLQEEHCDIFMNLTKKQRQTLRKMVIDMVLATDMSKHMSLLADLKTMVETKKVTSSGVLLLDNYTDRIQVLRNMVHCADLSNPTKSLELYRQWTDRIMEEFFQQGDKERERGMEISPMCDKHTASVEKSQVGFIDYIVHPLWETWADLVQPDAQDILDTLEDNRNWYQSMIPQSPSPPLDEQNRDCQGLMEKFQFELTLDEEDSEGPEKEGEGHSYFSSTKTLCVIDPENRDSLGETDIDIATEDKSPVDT
Procedure: PDE4B2 (GB no. M97515) was a gift of Prof. M. Conti (Stanford University, USA). It was amplified from the original plasmid (pCMV5) via PCR with primers Rb9 (5′-[…]-3′) and Rb10 (5′-[…]-3′) and cloned into the pCR-Bac vector (Invitrogen, Groningen, NL).
The recombinant baculovirus was prepared by means of homologous recombination in SF9 insect cells. The expression plasmids were cotransfected with Bac-N-Blue (Invitrogen, Groningen, NL) or Baculo-Gold DNA (Pharmingen, Hamburg) using a standard protocol (Pharmingen, Hamburg). Wt vrus-free recombinant virus supernatants were selected using plaque assay methods. After that, high-titre virus supernatants were, prepared by amplifying 3 times. PDE4B2 was expressed in SF21 cells by infecting 2×10^6 cells/ml with an MOI (multiplicity of infection) between 1 and 10 in serum-free SF900 medium (Life Technologies, Paisley, UK). The cells were cultured at 28° C. for 48-72 hours, after which they were pelleted for 5-10 min at 1000 g and 4° C.
The SF21 insect cells were resuspended, at a concentration of approx. 10^7 cells/ml, in ice-cold (4° C.) homogenization buffer (20 mM Tris, pH 8.2, containing the following additions: 140 mM NaCl, 3.8 mM KCl, 1 mM EGTA, 1 mM MgCl2, 10 mM β-mercaptoethanol, 2 mM benzamidine, 0.4 mM Pefablock, 10 μM leupeptin, 10 μM pepstatin A, 5 μM trypsin inhibitor) and disrupted by ultrasonication. The homogenate was then centrifuged for 10 min at 1000×g and the supernatant was stored at −80° C. until sub-sequent use (see below). The protein content was determined by the Bradford method (BioRad, Munich) using BSA as the standard.
PDE4B2 activity was inhibited by the compounds according to the invention in a modified SPA (scintillation proximity assay) test, supplied by Amersham Biosciences (see procedural instructions “phosphodiesterase [3H]cAMP SPA enzyme assay, code TRKQ 7090”), carried out in 96-well microtitre plates (MTP's). The test volume is 100 μl and contains 20 mM Tris buffer (pH 7.4), 0.1 mg of BSA (bovine serum albumin)/ml, 5 mM Mg^2+, 0.5 μM cAMP (including about 50,000 cpm of [3H]cAMP), 1 μl of the respective substance dilution in DMSO and sufficient recombinant PDE (1000×g supernatant, see above) to ensure that 10-20% of the cAMP is converted under the said experimental conditions. […] After a preincubation of 5 min at 37° C., the reaction is started by adding the substrate (cAMP) and the assays are incubated for a further 15 min; after that, they are stopped by adding SPA beads (50 μl). In accordance with the manufacturer's instructions, the SPA beads had previously been resuspended in water, but were then diluted 1:3 (v/v) in water; the diluted solution also contains 3 mM IBMX to ensure a complete PDE activity stop. After the beads have been sedimented (>30 min), the MTP's are analyzed in commercially available luminescence detection devices. The corresponding IC50 values of the compounds for the inhibition of PDE4B2 activity are determined from the concentration-effect curves by means of non-linear regression.

SMILES	IC50 [1] [nM]	melting point [°C]
COc1ccc(C2=NN(C3CCN(S(=O)(=O)c4ccccc4C#N)CC3)C(=O)C(C)(C)C2)cc1OC [Compound 1]	0.295	190 to 192
COc1ccc(C2=NN(C3CCN(CCC(=O)N4CCOCC4)CC3)C(=O)C(C)(C)C2)cc1OC.Cl [Compound 2, 6-(3,4-Dimethoxy-phenyl)-4,4-dimethyl-2-[1-(3-morpholin-4-yl-3-oxo-propyl)piperidin-4-yl]-4,5-dihydro-2H-pyridazin-3-one Hydrochloride]	25.1	211 to 213
COc1ccc(C2=NN(C3CCN(CC(N)=O)CC3)C(=O)C(C)(C)C2)cc1OC [Compound 3]	1.86	
COc1ccc(C2=NN(C3CCN(C(=O)CN4C(=O)CCC4=O)CC3)C(=O)C(C)(C)C2)cc1OC [Compound 4, 1-(2-{4-[3-(3,4-Dimethoxy-phenyl)-5,5-dimethyl-6-oxo-5,6-dihydro-4H-pyridazin-1-yl]-piperidin-1-yl}-2-oxo-ethyl)-pyrrolidine-2,5-dione]	1.29	177 to 179
COc1ccc(C2=NN(C3CCN(S(=O)(=O)c4ccccc4C)CC3)C(=O)C(C)(C)C2)cc1OC [Compound 5, 6-(3,4-Dimethoxy-phenyl)-4,4-dimethyl-2-[1-(toluene-2-sulfonyl)-piperidin-4-yl]-4,5-dihydro-2H-pyridazin-3-one]	0.741	132 to 133
COc1ccc(C2=NN(C3CCN(S(=O)(=O)c4ccc(C#N)cc4)CC3)C(=O)C(C)(C)C2)cc1OC [Compound 6, 4-{4-[3-(3,4-Dimethoxy-phenyl)-5,5-dimethyl-6-oxo-5,6-dihydro-4H-pyridazin-1-yl]-piperidine-1-sulfonyl}-benzonitrile]		161 to 163
COc1ccc(C2=NN(C3CCN(S(=O)(=O)c4ccccc4OC(F)(F)F)CC3)C(=O)C(C)(C)C2)cc1OC [Compound 7, 6-(3,4-Dimethoxy-phenyl)-4,4-dimethyl-2-[1-(2-trifluoromethoxy-benzenesulfonyl)-piperidin-4-yl]-4,5-dihydro-2H-pyridazin-3-one]	2.29	143 to 144
COc1ccc(C2=NN(C3CCN(C(=O)c4ccccc4OC)CC3)C(=O)C(C)(C)C2)cc1OC [Compound 8, 6-(3,4-Dimethoxy-phenyl)-2-{1-[1-(2-methoxy-phenyl)-methanoyl]-piperidin-4-yl}-4,4-dimethyl-4,5-dihydro-2H-pyridazin-3-one]	0.209	157 to 159
COc1ccc(C2=NN(C3CCN(S(=O)(=O)c4cccc(C#N)c4)CC3)C(=O)C(C)(C)C2)cc1OC [Compound 9, 3-{4-[3-(3,4-Dimethoxy-phenyl)-5,5-dimethyl-6-oxo-5,6-dihydro-4H-pyridazin-1-yl]-piperidine-1-sulfonyl}-benzonitrile]		158 to 160
COc1ccc(C2=NN(C3CCN(S(=O)(=O)c4ccc(C)cc4)CC3)C(=O)C(C)(C)C2)cc1OC [Compound 10, 6-(3,4-Dimethoxy-phenyl)-4,4-dimethyl-2-[1-(toluene-4-sulfonyl)-piperidin-4-yl]-4,5-dihydro-2H-pyridazin-3-one]		161 to 164
COc1ccc(C2=NN(C3CCN(S(=O)(=O)c4cccc(C)c4)CC3)C(=O)C(C)(C)C2)cc1OC [Compound 11, 6-(3,4-Dimethoxy-phenyl)-4,4-dimethyl-2-[1-(toluene-3-sulfonyl)-piperidin-4-yl]-4,5-dihydro-2H-pyridazin-3-one]		150 to 152
COc1ccc(C2=NN(C3CCN(S(=O)(=O)N(C)C)CC3)C(=O)C(C)(C)C2)cc1OC [Compound 12, 4-[3-(3,4-Dimethoxy-phenyl)-5,5-dimethyl-6-oxo-5,6-dihydro-4H-pyridazin-1-yl]-piperidine-1-sulfonic Acid Dimethylamide]		172 to 174
COc1ccc(C2=NN(C3CCN(CC(N)=O)CC3)C(=O)C(C)(C)C2)c2c1OC(C)(C)C2 [Compound 13, 2-{4-[3-(7-Methoxy-2,2-dimethyl-2,3-dihydro-benzofuran-4-yl)-5,5-dimethyl-6-oxo-5,6-dihydro-4H-pyridazin-1-yl]-piperidin-1-yl}-acetamide]	0.417	215 to 216
CCC1(CC)CC(c2ccc(OC)c(OC)c2)=NN(C2CCN(C(=O)c3ccccc3)CC2)C1=O [Compound 14, 6-(3,4-Dimethoxy-phenyl)-4,4-diethyl-2-[1-(1-phenyl-methanoyl)-piperidin-4-yl]-4,5-dihydro-2H-pyridazin-3-one]		160 to 161
CCC1(CC)CC(c2ccc(OC)c(OC)c2)=NN(C2CCN(CC(N)=O)CC2)C1=O.Cl [Compound 15, 2-{4-[3-(3,4-Dimethoxy-phenyl)-5,5-diethyl-6-oxo-5,6-dihydro-4H-pyridazin-1-yl]-piperidin-1-yl}-acetamide Hydrochloride]	6.17	69 to 74
CCC1(CC)CC(c2ccc(OC)c(OC)c2)=NN(C2CCN(S(=O)(=O)c3ccccc3C#N)CC2)C1=O [Compound 16, 2-{4-[3-(3,4-Dimethoxy-phenyl)-5,5-diethyl-6-oxo-5,6-dihydro-4-pyridazin-1-yl]-piperidin-1-sulfonyl}-benzonitrile]	0.355	156 to 157
COc1ccc(C2=NN(C3CCN(C(=O)CN4C(=O)COCC4=O)CC3)C(=O)C(C)(C)C2)cc1OC [Compound 17, 4-(2-{4-[3-(3,4-Dimethoxy-phenyl)-5,5-dimethyl-6-oxo-5,6-dihydro-4H-pyridazin-1-yl]-piperidin-1-yl}-2-oxo-ethyl)-morpholine-3,5-dione]	0.646	210 to 211
CCC1(CC)CC(c2ccc(OC)c(OC)c2)=NN(C2CCN(C(=O)c3ccccc3OC)CC2)C1=O [Compound 18, 6-(3,4-Dimethoxy-phenyl)-4,4-diethyl-2-{1-[1-(2-methoxy-phenyl)-methanoyl]-piperidin-4-yl}-4,5-dihydro-2H-pyridazin-3-one]		160 to 162
COc1ccc(C2=NN(C3CCN(C(=O)CN4CCN(C)CC4)CC3)C(=O)C(C)(C)C2)c2c1OC(C)(C)C2 [Compound 19, 6-(7-Methoxy-2,2-dimethyl-2,3-dihydro-benzofuran-4-yl)-4,4-dimethyl-2-{1-[2-(4-methyl-piperazin-1-yl)-ethanoyl]-piperidin-4-yl}-4,5-dihydro-2H-pyridazin-3-one]		121 to 123
COc1ccc(C2=NN(C3CCN(C(=O)CN4C(=O)CCC4=O)CC3)C(=O)C(C)(C)C2)c2c1OC(C)(C)C2 [Compound 20, 1-(2-{4-[3-(7-Methoxy-2,2-dimethyl-2,3-dihydro-benzofuran-4-yl)-5,5-dimethyl-6-oxo-5,6-dihydro-4H-pyridazin-1-yl]-piperidin-1-yl}-2-oxo-ethyl)-pyrrolidine-2,5-dione]		240 to 241
COc1ccc(C2=NN(C3CCN(C(=O)CN4C(=O)c5ccccc5C4=O)CC3)C(=O)C(C)(C)C2)cc1OC [Compound 21, 2-(2-{4-[3-(3,4-Dimethoxy-phenyl)-5,5-dimethyl-6-oxo-5,6-dihydro-4H-pyridazin-1-yl]-piperidin-1-yl}-2-oxo-ethyl)-isoindole-1,3-dione]		193 to 194
